According to patent US11713335B2, “Aminocoumarin compounds and methods of their use” (President and Fellows of Harvard College, priority 2018, dated 2023):
≈ marks a conversion by molar mass, not a printed value. Like-named read-outs stand apart in the source and are kept apart here.

Tests used:
WT E. coli = experiment: Minimal inhibitory concentration in wild-type E. coli; type: cell-based, Escherichia coli; conditions: wild-type E. coli, 37° C., 16 hours, read-out: MIC (μM) in WT E. coli
Method in brief: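 Broth microdilution: saturated LB overnight culture diluted 1:100 twice, compound serially two-fold diluted across the plate from DMSO stock. Static incubation 16 hours at 37° C, OD600 read; MIC taken as lowest concentration inhibiting growth.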

S. aureus RN4220 = experiment: Minimal inhibitory concentration, S. aureus RN4220; type: cell-based; conditions: 16 hour minimal inhibitory concentration at 37° C., read-out: MIC (μM) S. aureus RN4220
Method in brief: (§1)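 Broth microdilution, 2-fold series from DMSO stock; inoculum = saturated overnight culture (LB; TSA for S. aureus) diluted 1:100 then 1:100. 37 °C, 16 h, no shaking. OD600 read-out; MIC = lowest conc. inhibiting growth (µM).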

S. aureus MW2 = experiment: Minimal inhibitory concentration, S. aureus MW2; type: cell-based; conditions: 16 hour minimal inhibitory concentration at 37° C., read-out: MIC (μM) S. aureus MW2 (MRSA)
Method in brief: as §1

E. cloacae 13047 = experiment: Minimal inhibitory concentration, E. cloacae 13047; type: cell-based; conditions: 16 hour minimal inhibitory concentration at 37° C., read-out: MIC (μM) E. cloacae 13047
Method in brief: as §1

A. baumannii 19606 = experiment: Minimal inhibitory concentration, A. baumannii 19606; type: cell-based; conditions: 16 hour minimal inhibitory concentration at 37° C., read-out: MIC (μM) A. baumannii 19606
Method in brief: as §1

K. pneumoniae 700721 = experiment: Minimal inhibitory concentration, K. pneumoniae 700721; type: cell-based; conditions: 16 hour minimal inhibitory concentration at 37° C., read-out: MIC (μM) K. pneumoniae 700721
Method in brief: as §1

E. coli MC4100 = experiment: Minimal inhibitory concentration, E. coli MC4100; type: cell-based; conditions: 16 hour minimal inhibitory concentration at 37° C., read-out: MIC (μM) E. coli MC4100 ara+
Method in brief: as §1

E. coli 25922 = experiment: Minimal inhibitory concentration, E. coli 25922; type: cell-based; conditions: 16 hour minimal inhibitory concentration at 37° C., read-out: MIC (μM) E. coli 25922
Method in brief: as §1

[1] = Staphylococcus aureus, RN4220, 16 h
[2] = Staphylococcus aureus, MRSA, 16 h
[3] = Acinetobacter baumannii, 19606, 16 h

SMILES | MIC (WT E. coli; Escherichia coli) [µM] | MIC (S. aureus RN4220; [1]) [µM] | MIC (S. aureus MW2; [2]) [µM] | MIC (E. cloacae 13047; Enterobacter cloacae, 13047) [µM] | MIC (A. baumannii 19606; [3]) [µM] | MIC (K. pneumoniae 700721; Klebsiella pneumoniae, 700721) [µM] | MIC (E. coli MC4100; Escherichia coli, MC4100, 16 h) [µM] | MIC (E. coli 25922; Escherichia coli, 25922, 16 h) [µM] | MIC (WT E. coli) [µM] | MIC (S. aureus RN4220) [µM] | MIC (S. aureus MW2) [µM] | MIC (E. cloacae 13047) [µM] | MIC (A. baumannii 19606) [µM] | MIC (K. pneumoniae 700721) [µM] | MIC (E. coli MC4100) [µM] | MIC (E. coli 25922) [µM]
CO[C@@H]1[C@@H](OC(N)=O)[C@@H](O)[C@H](Oc2ccc3c(O)c(NC(=O)c4ccccc4-c4ccccc4)c(=O)oc3c2C)OC1(C)C [Compound 40] | > 300 | 41 (≈ 24.8 µg/mL) | 41 (≈ 24.8 µg/mL) | > 100 | > 50 | > 100 | > 100 | > 200 | – | – | – | – | – | – | – | –
CO[C@@H]1[C@@H](OC(N)=O)[C@@H](O)[C@H](Oc2ccc3c(O)c(NC(=O)c4cccc(N5CCN(C)CC5)c4)c(=O)oc3c2C)OC1(C)C [Compound 52] | > 300 | > 100 | > 100 | > 100 | > 50 | > 100 | > 200 | 160 (≈ 100 µg/mL) | – | – | – | – | – | – | – | –
CO[C@@H]1[C@@H](OC(N)=O)[C@@H](O)[C@H](Oc2ccc3c(O)c(NC(=O)c4ccc5c(ccn5C)c4)c(=O)oc3c2C)OC1(C)C.Cl [Compound 73] | – | – | – | – | – | – | – | – | >300 | >100 | 81 | >100 | >50 | >100 | >200 | >200
CO[C@@H]1[C@@H](OC(N)=O)[C@@H](O)[C@H](Oc2ccc3c(O)c(NC(=O)C(c4ccccc4)c4ccccc4)c(=O)oc3c2C)OC1(C)C [Compound 5] | > 300 | > 100 | 80 (≈ 49.5 µg/mL) | > 100 | > 50 | > 100 | > 200 | > 200 | – | – | – | – | – | – | – | –
CO[C@@H]1[C@@H](OC(N)=O)[C@@H](O)[C@H](Oc2ccc3c(O)c(NC(=O)c4cccc(-c5ccc(F)cc5)c4)c(=O)oc3c2C)OC1(C)C [Compound 28] | 26 (≈ 16.2 µg/mL) | 5 (≈ 3.11 µg/mL) | 5 (≈ 3.11 µg/mL) | 161 (≈ 100 µg/mL) | > 50 | 80 (≈ 49.8 µg/mL) | 26 (≈ 16.2 µg/mL) | 40 (≈ 24.9 µg/mL) | – | – | – | – | – | – | – | –
CO[C@@H]1[C@@H](OC(N)=O)[C@@H](O)[C@H](Oc2ccc3c(O)c(NC(=O)c4ccc(O)c(-c5ccc(F)cc5)c4)c(=O)oc3c2C)OC1(C)C [Compound 79] | – | – | – | – | – | – | – | – | 26 (≈ 16.6 µg/mL) | 2 (≈ 1.28 µg/mL) | 0.98 (≈ 0.626 µg/mL) | >100 | 20 (≈ 12.8 µg/mL) | 78 (≈ 49.8 µg/mL) | 26 (≈ 16.6 µg/mL) | 20 (≈ 12.8 µg/mL)
CO[C@@H]1[C@@H](OC(N)=O)[C@@H](O)[C@H](Oc2ccc3c(O)c(NC(=O)c4cccc(-c5ccccc5)c4)c(=O)oc3c2C)OC1(C)C [Compound 1] | 26 (≈ 15.7 µg/mL) | 5 (≈ 3.02 µg/mL) | 5 (≈ 3.02 µg/mL) | > 100 | > 50 | > 100 | 26 (≈ 15.7 µg/mL) | 41 (≈ 24.8 µg/mL) | – | – | – | – | – | – | – | –
CO[C@@H]1[C@@H](OC(N)=O)[C@@H](O)[C@H](Oc2ccc3c(O)c(NC(=O)c4cccc(-c5ccccc5N)c4)c(=O)oc3c2C)OC1(C)C [Compound 65] | – | – | – | – | – | – | – | – | 59 (≈ 36.6 µg/mL) | 81 (≈ 50.2 µg/mL) | 40 (≈ 24.8 µg/mL) | >100 | >50 | >100 | 59 (≈ 36.6 µg/mL) | >200
COC1C(OC(N)=O)C(O)C(Oc2ccc3c(O)c(NC(=O)C4CCCC(C5CCCCC5)C4)c(=O)oc3c2C)OC1(C)C (mixture of isomers) [Compound 63] | – | – | – | – | – | – | – | – | 300 | 10 | 5 | >100 | >50 | >100 | >200 | >200
CO[C@@H]1[C@@H](OC(N)=O)[C@@H](O)[C@H](Oc2ccc3c(O)c(NC(=O)c4cccc(-c5cccs5)c4)c(=O)oc3c2C)OC1(C)C [Compound 22] | 89 (≈ 54.3 µg/mL) | 10 (≈ 6.11 µg/mL) | 10 (≈ 6.11 µg/mL) | > 100 | > 50 | > 100 | 89 (≈ 54.3 µg/mL) | 164 (≈ 100 µg/mL) | – | – | – | – | – | – | – | –
CO[C@@H]1[C@@H](OC(N)=O)[C@@H](O)[C@H](Oc2ccc3c(O)c(NC(=O)c4ccc(Oc5ccccc5)cc4)c(=O)oc3c2C)OC1(C)C [Compound 44] | – | – | – | – | – | – | – | – | >300 | 45 (≈ 27.9 µg/mL) | 40 (≈ 24.8 µg/mL) | >100 | >50 | >100 | >200 | >200
CO[C@@H]1[C@@H](OC(N)=O)[C@@H](O)[C@H](Oc2ccc3c(O)c(NC(=O)c4cccc(-c5ccc(C)cc5)c4)c(=O)oc3c2C)OC1(C)C [Compound 20] | – | – | – | – | – | – | – | – | 26 (≈ 16.1 µg/mL) | 2.5 (≈ 1.55 µg/mL) | 3 (≈ 1.86 µg/mL) | >100 | 40 (≈ 24.7 µg/mL) | >100 | 26 (≈ 16.1 µg/mL) | 40 (≈ 24.7 µg/mL)
CO[C@@H]1[C@@H](OC(N)=O)[C@@H](O)[C@H](Oc2ccc3c(O)c(NC(=O)c4cccc(-c5ccc6ccccc6c5)c4)c(=O)oc3c2C)OC1(C)C [Compound 39] | – | – | – | – | – | – | – | – | >300 | 0.19 (≈ 0.124 µg/mL) | 0.1 (≈ 0.0655 µg/mL) | >100 | 5 (≈ 3.27 µg/mL) | >100 | >200 | 153 (≈ 100 µg/mL)
CO[C@@H]1[C@@H](OC(N)=O)[C@@H](O)[C@H](Oc2ccc3c(O)c(NC(=O)c4cccc(-c5ccccc5)c4O)c(=O)oc3c2C)OC1(C)C [Compound 88] | – | – | – | – | – | – | – | – | 89 (≈ 55.2 µg/mL) | >100 | 81 (≈ 50.3 µg/mL) | >100 | >50 | >100 | 89 (≈ 55.2 µg/mL) | 161 (≈ 99.9 µg/mL)
CO[C@@H]1[C@@H](OC(N)=O)[C@@H](O)[C@H](Oc2ccc3c(O)c(NC(=O)c4cccc(Oc5ccccc5)c4)c(=O)oc3c2C)OC1(C)C [Compound 35] | 8 (≈ 4.96 µg/mL) | 40 (≈ 24.8 µg/mL) | 20 (≈ 12.4 µg/mL) | > 100 | > 50 | > 100 | 8 (≈ 4.96 µg/mL) | 10 (≈ 6.21 µg/mL) | – | – | – | – | – | – | – | –
CO[C@@H]1[C@@H](OC(N)=O)[C@@H](O)[C@H](Oc2ccc3c(O)c(NC(=O)c4ccc(N)c(-c5ccccc5)c4)c(=O)oc3c2C)OC1(C)C [Compound 86] | – | – | – | – | – | – | – | – | 18 (≈ 11.2 µg/mL) | 20 (≈ 12.4 µg/mL) | 20 (≈ 12.4 µg/mL) | >100 | >50 | 40 (≈ 24.8 µg/mL) | 18 (≈ 11.2 µg/mL) | 20 (≈ 12.4 µg/mL)
